Experimental data reported in patent US8952024B2, “Herbicidal pyrimidone derivatives” (E I du Pont de Nemours and Company, priority 2009, dated 2015).

How the values were obtained:
Test in all cases: Test D pre-/postemergence plant response
Type in all cases: in vivo
[1] = system: morningglory (pitted morningglory, Ipomoea lacunosa)
Description: (§1) Seeds of plant species selected from bermudagrass (Cynodon dactylon), Surinam grass (Brachiaria decumbens), large crabgrass (Digitaria sanguinalis), green foxtail (Setaria viridis), goosegrass (Eleusine indica), johnsongrass (Sorghum halepense), kochia (Kochia scoparia), morningglory (pitted morningglory, Ipomoea lacunosa), nutsedge (purple nutsedge, Cyperus rotundus), ragweed (common ragweed, Ambrosia elatior), black mustard (Brassica nigra), guineagrass (Panicum maximum), dallisgrass (Paspalum dilatatum), barnyardgrass (Echinochloa crus-galli), sandbur (southern sandbur, Cenchrus echinatus), sowthistle (common sowthistle, Sonchus oleraceous), prickly sida (Sida spinosa), Italian ryegrass (Lolium multiflorum), purslane (common purslane, Portulaca oleracea), signalgrass (broadleaf signalgrass, Brachiaria platyphylla), groundsel (common groundsel, Senecio vulgaris), chickweed (common chickweed, Stellaria media), dayflower (Virginia (VA) dayflower, Commelina virginica), bluegrass (annual bluegrass, Poa annua), naked crabgrass (Digitaria nuda), itchgrass (Rottboellia cochinchinensis), quackgrass (Elytrigia repens), field bindweed (Convolvulus arvensis), spanishneedles (Bidens bipinnata), mallow (common mallow, Malva sylvestris) and Russian thistle (Salsola kali), were planted into a blend of loam soil and sand and treated preemergence with test chemicals formulated in a non-phytotoxic solvent mixture which included a surfactant. At the same time, plants from these weed species were treated with postemergence applications of the test chemicals formulated in the same manner. Plants ranged in height from 2 to 18 cm (1- to 4-leaf stage) for postemergence treatments.
(§2) Treated plants and controls were maintained in a greenhouse for 14 to 21 days, after which time all species were visually evaluated and compared to controls. Plant response ratings, summarized in Table D, are based on a scale of 0 to 100 where 0 is no effect and 100 is complete control. A dash (-) response means no test result.

[2] = system: quackgrass (Elytrigia repens)
Description: as §1, §2

[3] = system: field bindweed (Convolvulus arvensis)
Description: as §1, §2

[4] = system: groundsel (common groundsel, Senecio vulgaris); settings: Postemergence
Description: as §1, §2

[5] = system: chickweed (common chickweed, Stellaria media)
Description: as §1, §2

[6] = system: sowthistle (common sowthistle, Sonchus oleraceous)
Description: as §1, §2

[7] = system: Italian ryegrass (Lolium multiflorum)
Description: as §1, §2

[8] = system: guineagrass (Panicum maximum)
Description: as §1, §2

[9] = system: naked crabgrass (Digitaria nuda)
Description: as §1, §2

[10] = system: large crabgrass (Digitaria sanguinalis)
Description: as §1, §2

[11] = system: signalgrass (broadleaf signalgrass, Brachiaria platyphylla)
Description: as §1, §2

[12] = system: black mustard (Brassica nigra)
Description: as §1, §2

[13] = system: Russian thistle (Salsola kali); settings: Preemergence, 16 g ai/ha; scale 0 to 100, 0 no effect, 100 complete control
Description: as §1, §2

[14] = system: nutsedge (purple nutsedge, Cyperus rotundus)
Description: as §1, §2

[15] = system: bermudagrass (Cynodon dactylon)
Description: as §1, §2

[16] = system: Surinam grass (Brachiaria decumbens)
Description: as §1, §2

[17] = system: purslane (common purslane, Portulaca oleracea)
Description: as §1, §2

[18] = Postemergence, 16 g ai/ha, scale 0 to 100
[19] = Postemergence, 31 g ai/ha, scale 0 to 100
[20] = Postemergence, 125 g ai/ha, scale 0 to 100 (0 no effect, 100 complete control)
[21] = Postemergence, 62 g ai/ha, scale 0 to 100 (0 no effect, 100 complete control)
[22] = Preemergence, 16 g ai/ha, scale 0 to 100, 0 no effect, 100 complete control
[23] = Preemergence, 31 g ai/ha, scale 0 to 100 (0 no effect, 100 complete control)
[24] = Preemergence, 62 g ai/ha, scale 0 to 100
[25] = Preemergence, 125 g ai/ha, scale 0 to 100
[26] = Postemergence, 31 g ai/ha, scale 0 to 100 (0 no effect, 100 complete control)

In the case of `Cc1ccc(Cl)cc1-n1c(-c2ccccc2)ncc(C(=O)C2=C(O)CCCC2=O)c1=O` [Compound 52], the “Plant response rating, Morningglory” value [1, 18] is reported as 50, the “Plant response rating, Morningglory” value [1, 19] is reported as 65 and the “Plant response rating, Morningglory” value [1, 20] is reported as 70. The “Plant response rating, Morningglory” value [1, 21] was 70, the “Plant response rating, Morningglory” value [1, 22] was 0 and the “Plant response rating, Morningglory” value [1, 23] was 0. For the same molecule, the “Plant response rating, Morningglory” value [1, 24] was 0, the “Plant response rating, Morningglory” value [1, 25] was 100 and the “Plant response rating, Quackgrass” value [2, 18] was 5. For the same molecule, the “Plant response rating, Quackgrass” value [2, 19] was 10, the “Plant response rating, Quackgrass” value [2, 20] was 20 and the “Plant response rating, Quackgrass” value [2, 21] was 15. For the same molecule, the “Plant response rating, Quackgrass” value [2, 22] was 0, the “Plant response rating, Quackgrass” value [2, 23] was 0 and the “Plant response rating, Quackgrass” value [2, 25] was 20. The “Plant response rating, Field Bindweed” value [3, 18] was 50, the “Plant response rating, Field Bindweed” value [3, 19] was 70 and the “Plant response rating, Field Bindweed” value [3, 20] was 70. For the same molecule, the “Plant response rating, Field Bindweed” value [3, 21] was 70, the “Plant response rating, Field Bindweed” value [3, 22] was 20 and the “Plant response rating, Field Bindweed” value [3, 24] was 20. For the same molecule, the “Plant response rating, Field Bindweed” value [3, 25] was 50, the “Plant response rating, Groundsel” value ([4]; 16 g ai/ha, scale 0 to 100) was 100 and the “Plant response rating, Groundsel” value ([4]; 31 g ai/ha, scale 0 to 100) was 100. For the same molecule, the “Plant response rating, Groundsel” value ([4]; 125 g ai/ha, scale 0 to 100 (0 no effect, 100 complete control)) was 100, the “Plant response rating, Groundsel” value ([4]; 62 g ai/ha, scale 0 to 100 (0 no effect, 100 complete control)) was 100 and the “Plant response rating, Chickweed” value [5, 18] was 75. For the same molecule, the “Plant response rating, Chickweed” value [5, 19] was 90, the “Plant response rating, Chickweed” value [5, 20] was 100 and the “Plant response rating, Chickweed” value [5, 21] was 98. For the same molecule, the “Plant response rating, Chickweed” value [5, 25] was 95, the “Plant response rating, Sowthistle” value [6, 18] was 80 and the “Plant response rating, Sowthistle” value [6, 19] was 95. For the same molecule, the “Plant response rating, Sowthistle” value [6, 20] was 100, the “Plant response rating, Sowthistle” value [6, 21] was 98 and the “Plant response rating, Sowthistle” value [6, 22] was 0. For the same molecule, the “Plant response rating, Sowthistle” value [6, 23] was 80, the “Plant response rating, Sowthistle” value [6, 25] was 100 and the “Plant response rating, Ryegrass, Italian” value [7, 18] was 0. For the same molecule, the “Plant response rating, Ryegrass, Italian” value [7, 19] was 0, the “Plant response rating, Ryegrass, Italian” value [7, 20] was 35 and the “Plant response rating, Ryegrass, Italian” value [7, 21] was 15. The “Plant response rating, Ryegrass, Italian” value [7, 22] was 0, the “Plant response rating, Ryegrass, Italian” value [7, 23] was 0 and the “Plant response rating, Ryegrass, Italian” value [7, 25] was 15. The “Plant response rating, Guineagrass” value [8, 18] was 50, the “Plant response rating, Guineagrass” value [8, 19] was 70 and the “Plant response rating, Guineagrass” value [8, 20] was 75. For the same molecule, the “Plant response rating, Guineagrass” value [8, 21] was 75, the “Plant response rating, Guineagrass” value [8, 22] was 0 and the “Plant response rating, Guineagrass” value [8, 24] was 50. For the same molecule, the “Plant response rating, Crabgrass, Naked” value [9, 18] was 70, the “Plant response rating, Crabgrass, Naked” value [9, 19] was 75 and the “Plant response rating, Crabgrass, Naked” value [9, 20] was 95. For the same molecule, the “Plant response rating, Crabgrass, Naked” value [9, 21] was 95, the “Plant response rating, Crabgrass, Naked” value [9, 22] was 0 and the “Plant response rating, Crabgrass, Naked” value [9, 23] was 0. The “Plant response rating, Crabgrass, Naked” value [9, 24] was 20, the “Plant response rating, Crabgrass, Naked” value [9, 25] was 80 and the “Plant response rating, Crabgrass, Large” value [10, 18] was 65. For the same molecule, the “Plant response rating, Crabgrass, Large” value [10, 19] was 70, the “Plant response rating, Crabgrass, Large” value [10, 20] was 70 and the “Plant response rating, Crabgrass, Large” value [10, 21] was 70. For the same molecule, the “Plant response rating, Crabgrass, Large” value [10, 22] was 0, the “Plant response rating, Crabgrass, Large” value [10, 23] was 20 and the “Plant response rating, Crabgrass, Large” value [10, 24] was 75. For the same molecule, the “Plant response rating, Crabgrass, Large” value [10, 25] was 98, the “Plant response rating, Signalgrass” value [11, 18] was 50 and the “Plant response rating, Signalgrass” value [11, 19] was 60. The “Plant response rating, Signalgrass” value [11, 20] was 90, the “Plant response rating, Signalgrass” value [11, 21] was 80 and the “Plant response rating, Signalgrass” value [11, 22] was 0. For the same molecule, the “Plant response rating, Signalgrass” value [11, 23] was 0, the “Plant response rating, Signalgrass” value [11, 25] was 90 and the “Plant response rating, Black Mustard” value [12, 18] was 65. For the same molecule, the “Plant response rating, Black Mustard” value [12, 26] was 90, the “Plant response rating, Black Mustard” value [12, 20] was 98 and the “Plant response rating, Black Mustard” value [12, 21] was 98. For the same molecule, the “Plant response rating, Black Mustard” value [12, 22] was 0, the “Plant response rating, Black Mustard” value [12, 23] was 20 and the “Plant response rating, Black Mustard” value [12, 24] was 80. The “Plant response rating, Black Mustard” value [12, 25] was 100, the “Plant response rating, Russian Thistle” value [13] was 0 and the “Plant response rating, Nutsedge, Purple” value [14, 18] was 0. The “Plant response rating, Nutsedge, Purple” value [14, 19] was 20, the “Plant response rating, Nutsedge, Purple” value [14, 20] was 40 and the “Plant response rating, Nutsedge, Purple” value [14, 21] was 35. The “Plant response rating, Nutsedge, Purple” value [14, 22] was 0, the “Plant response rating, Nutsedge, Purple” value [14, 23] was 5 and the “Plant response rating, Nutsedge, Purple” value [14, 24] was 30. The “Plant response rating, Nutsedge, Purple” value [14, 25] was 40, the “Plant response rating, Bermudagrass” value [15, 18] was 75 and the “Plant response rating, Bermudagrass” value [15, 26] was 75. The “Plant response rating, Bermudagrass” value [15, 20] was 80, the “Plant response rating, Bermudagrass” value [15, 21] was 75 and the “Plant response rating, Bermudagrass” value [15, 22] was 30. For the same molecule, the “Plant response rating, Bermudagrass” value [15, 23] was 70, the “Plant response rating, Bermudagrass” value [15, 24] was 90 and the “Plant response rating, Bermudagrass” value [15, 25] was 100. The “Plant response rating, Surinam Grass” value [16, 19] was 65, the “Plant response rating, Surinam Grass” value [16, 20] was 90 and the “Plant response rating, Surinam Grass” value [16, 21] was 80. The “Plant response rating, Surinam Grass” value [16, 22] was 0, the “Plant response rating, Surinam Grass” value [16, 23] was 98 and the “Plant response rating, Surinam Grass” value [16, 25] was 98. For the same molecule, the “Plant response rating, Purslane” value [17, 18] was 65, the “Plant response rating, Purslane” value [17, 19] was 65 and the “Plant response rating, Purslane” value [17, 20] was 75. The “Plant response rating, Purslane” value [17, 21] was 65, the “Plant response rating, Purslane” value [17, 22] was 0 and the “Plant response rating, Purslane” value [17, 23] was 60. The “Plant response rating, Purslane” value [17, 24] was 90 and the “Plant response rating, Purslane” value [17, 25] was 100.
